# From US20060069132A1, “Azolecarboxamide herbicides” (priority 2004, published 2006)
# How the values were obtained:
# lambsquarters = test: Test C pre-/postemergence herbicide test; assay type: in vivo, Chenopodium album; details: preemergence
# In short: (§1)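 Emerged plants at the 1- to 4-leaf stage (2–18 cm), or freshly planted seeds, received test chemicals in a non-phytotoxic solvent mixture with surfactant. Response was visually scored against controls after 12 to 14 days in the greenhouse, on a 0 (no effect) to 100 (complete control) scale.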
# eastern black nightshade = test: Test C pre-/postemergence herbicide test; assay type: in vivo, Solanum ptycanthum; details: preemergence
# In short: as §1
# goosegrass = test: Test C pre-/postemergence herbicide test; assay type: in vivo, Eleusine indica; details: preemergence
# In short: as §1
# cocklebur = test: Test C pre-/postemergence herbicide test; assay type: in vivo, Xanthium strumarium; details: for Plant response rating, Cocklebur: preemergence
# In short: as §1
# corn = test: Test C pre-/postemergence herbicide test; assay type: in vivo, Zea mays; details: preemergence
# In short: as §1
# rice = test: Test B flooded paddy test; assay type: in vivo, Oryza sativa; details: 1000 g ai/ha, scale 0 to 100 (0 no effect, 100 complete control)
# In short: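 Scale 0–100: zero equals no visible effect, 100 complete control, judged by eye relative to controls. Timing: 13 to 15 days in greenhouse post-treatment. Growth stage at spraying: two leaves (paddy) or one to four leaves, 2–18 cm (postemergence).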
# velvetleaf = test: Test C pre-/postemergence herbicide test; assay type: in vivo, Abutilon theophrasti; details: preemergence
# In short: as §1
# ducksalad [1] = test: Test C flooded paddy test; assay type: in vivo, Heteranthera limosa
# barnyardgrass = test: Test B flooded paddy test; assay type: in vivo, Echinochloa crus-galli; details: 1000 g ai/ha, scale 0 to 100 (0 no effect, 100 complete control)
# In short: (§2)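 Formulated test chemicals went onto postemergence plants measuring 2 to 18 cm, at one to four leaves. For the paddy assay, species had reached two leaves. Scoring took place 13–15 days later by eye, relative to untreated plants, using 0 for no effect up to 100 for full control.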
# johnsongrass = test: Test C pre-/postemergence herbicide test; assay type: in vivo, Sorghum halepense; details: preemergence
# In short: as §1
# ducksalad [2] = test: Test B flooded paddy test; assay type: in vivo, Heteranthera limosa; details: 1000 g ai/ha, scale 0 to 100 (0 no effect, 100 complete control)
# In short: as §2
# [3] = system: smallflower umbrella sedge; test: Test C flooded paddy test; assay type: in vivo, Cyperus difformis
# [4] = 125 g ai/ha, scale 0 (no effect) to 100 (complete control), visual, 12 to 14 days
# [5] = 500 g ai/ha, scale 0 to 100 (0 no effect, 100 complete control), visual, 12 to 14 days
# [6] = 125 g ai/ha, scale 0 to 100 (0 no effect, 100 complete control)
# [7] = 250 g ai/ha, scale of 0 to 100, 0 is no effect, 100 is complete control
# [8] = 500 g ai/ha, visual rating after 12 to 14 days, scale 0 to 100 (0 no effect, 100 complete control)
smiles,measurement,setting,value
CCN1N=C(C(C)(C)C)CC1C(=O)Nc1cc(C(=O)N2CC=CC2)ccc1F (racemic) [Compound 310],"Plant response rating, Lambsquarters","lambsquarters; 62 g ai/ha, scale 0 to 100",95
same,"Plant response rating, Lambsquarters",lambsquarters; [4],100
same,"Plant response rating, Lambsquarters","lambsquarters; 250 g ai/ha, scale 0-100",100
same,"Plant response rating, Lambsquarters",lambsquarters; [5],100
same,"Plant response rating, Nightshade","eastern black nightshade; 62 g ai/ha, scale 0 to 100",30
same,"Plant response rating, Nightshade",eastern black nightshade; [4],35
same,"Plant response rating, Nightshade","eastern black nightshade; 250 g ai/ha, scale 0-100",100
same,"Plant response rating, Nightshade",eastern black nightshade; [5],100
same,"Plant response rating, Goosegrass","goosegrass; 62 g ai/ha, scale 0 to 100",70
same,"Plant response rating, Goosegrass",goosegrass; [4],80
same,"Plant response rating, Goosegrass","goosegrass; 250 g ai/ha, scale 0-100",95
same,"Plant response rating, Goosegrass",goosegrass; [5],95
same,"Plant response rating, Cocklebur","cocklebur; 62 g ai/ha, scale 0 to 100",0
same,"Plant response rating, Cocklebur",cocklebur; [4],0
same,"Plant response rating, Cocklebur","cocklebur; 250 g ai/ha, scale 0-100",5
same,Cocklebur plant response rating,"cocklebur; Preemergence, 500 g ai/ha, scale 0 to 100, 0 no effect, 100 complete control",30
same,"Plant response rating, Corn",corn; [4],0
same,"Plant response rating, Corn","corn; 250 g ai/ha, scale 0-100",5
same,"Plant response rating, Corn",corn; [5],10
same,Rice plant response rating,rice,80
same,"Plant response rating, Velvetleaf","velvetleaf; 62 g ai/ha, scale 0 to 100",0
same,"Plant response rating, Velvetleaf","velvetleaf; 250 g ai/ha, scale 0-100",10
same,"Plant response rating, Velvetleaf",velvetleaf; [5],100
same,Ducksalad plant response rating,"ducksalad [1]; 62 g ai/ha, scale 0 to 100",45
same,Ducksalad plant response rating,ducksalad [1]; [6],75
same,Ducksalad plant response rating,ducksalad [1]; [7],80
same,"Plant response rating, Ducksalad",ducksalad [1]; [8],90
same,Barnyardgrass plant response rating,barnyardgrass,90
same,"Plant response rating, Johnsongrass","johnsongrass; 62 g ai/ha, scale 0 to 100",0
same,"Plant response rating, Johnsongrass",johnsongrass; [4],10
same,"Plant response rating, Johnsongrass","johnsongrass; 250 g ai/ha, scale 0-100",20
same,"Plant response rating, Johnsongrass",johnsongrass; [5],80
same,Ducksalad plant response rating,ducksalad [2],90
same,"Sedge, Umbrella plant response rating","[3]; 62 g ai/ha, scale 0 to 100",35
same,"Sedge, Umbrella plant response rating",[3]; [6],85
same,"Sedge, Umbrella plant response rating",[3]; [7],85
same,"Plant response rating, Sedge, Umbrella",[3]; [8],85
